Earlier results in US20230240292A1, “METHOD FOR GROWING PLANTS” (Taminco BV, priority 2020, published 2023).
Like-named read-outs stand apart in the source and are kept apart here.

How the values were obtained:
cauliflower seedlings = details: seedlings treated with 20 mM BABA

Root growth repression (in words) (Tomato plants; seedlings treated with as low as 0.25 mM JA)	Reduction in growth of cauliflower seedlings (cauliflower seedlings) [%]	Root growth repression (in words) (Tomato plants; seedlings treated with as low as 0.5 mM BABA)	SMILES
root growth repression was observed			CC/C=C\C[C@H]1C(=O)CC[C@@H]1CC(=O)O [JA, jasmonic acid]
	14.7	root growth repression was observed	CC(N)CC(=O)O (racemic) [BABA, beta-aminobutyric acid]
